# Data: PMC7156458, “Synthetic biology based construction of biological activity-related library of fungal decalin-containing diterpenoid pyrones” (Nature Communications, 2020)
# Where two headings read alike, the source gives them in different places.
# Experiments:
# MCF-7 cells = experiment: cell cytotoxic effects against MCF-7 cells (72 h), A490; assay type: cell-based, human; conditions: MCF-7, 72 h; for viability at 0.1 µM / viability at 1 µM / viability at 10 µM: Homo sapiens, MCF7, 72 h, read-out: A490 (control =1) ave
# [1] = cytotoxicity in Drosophila DL1 cells; assay type: cell-based; conditions: Drosophila, DL1 cells (embryonic macrophage-derived), DL1 cells
# Procedure: (§1) We screened the DDPs on the Drosophila assay system for cytotoxicity, inhibitory activity of innate immune signalling and insecticidal activity. The cytotoxicity of the DDPs was evaluated using two cell lines, embryonic macrophage-derived DL1 cells[58]–[60] and larval blood cell-derived l(2)mbn cells, and their IC50 values are listed in Supplementary Table 23.
# DL1 cells = experiment: cytotoxicity in Drosophila DL1 cells; assay type: cell-based; conditions: for IC50: Drosophila melanogaster
# Procedure: as §1
# [2] = test system: human immunodeficiency virus-1 (HIV-1); experiment: anti-HIV MAGI assay; assay type: cell-based; conditions: Human immunodeficiency virus 1, MAGI, anti-HIV; average of numeric determinations; read-out: Avg. EC50
# Excerpt: We examined the inhibitory activities of DDPs against various species of bacteria (both gram-negative and gram-positive bacteria), fungi and viruses. […] In contrast, preliminary screening of the DDPs for anti-viral agents with hepatitis B virus (HBV), measles virus (MV), Epstein-Barr virus (EBV), herpes simplex virus (HSV) and human immunodeficiency virus-1 (HIV-1) indicated their selective inhibition of HIV.
# MAGI cells = experiment: cytotoxicity in the anti-HIV assay (CC50); assay type: cell-based; conditions: single determinations
# HBC-5 = experiment: cells; parameters: species or system JFCR39 human cancer cell lines; JFCR39 panel growth inhibition, sulforhodamine B total protein after 48 h; conditions: HBC5, 48 h
# Procedure: (§2) Supplementary Note 24. Antiproliferative effects across the panel of JFCR39 cancer cell lines A panel of 39 human cancer cell lines, termed JFCR39, were previously described13-16. Cells were grown in RPMI-1640 (FUJIFILM Wako Pure Chemical Corporation, Tokyo, Japan) supplemented with 1 µg mL-1 kanamycin and 5% (v/v) fetal bovine serum (Nichirei Biosciences Inc, Tokyo, Japan) and incubated at 37°C in a humidified atmosphere supplemented with 5% CO2. Drug efficacy was assessed as changes in total cellular protein after 48 hours of drug treatment using a sulforhodamine B assay. Assays were done in duplicate and the GI50 was calculated as described previously13,16. The antitumor profile across the JFCR39 panel, or fingerprints were then compared to reference database containing ~2000 compounds by COMPARE algorithm16,17. Initially, we evaluated new DDP analogues for their antiproliferative activities across the panel of 39 human cancer cell lines, JFCR39[50],[51].
# LOX-IMVI = experiment: cells; parameters: species or system JFCR39 human cancer cell lines; JFCR39 panel growth inhibition, sulforhodamine B total protein after 48 h; conditions: Homo sapiens, LOX IMVI, 48 h
# Procedure: as §2
# MDA-MB-231 = experiment: cells; parameters: species or system JFCR39 human cancer cell lines; JFCR39 panel growth inhibition, sulforhodamine B total protein after 48 h; conditions: Homo sapiens, MDA-MB-231, 48 h
# Procedure: as §2
# MKN-B = experiment: cells; parameters: species or system JFCR39 human cancer cell lines; JFCR39 panel growth inhibition, sulforhodamine B total protein after 48 h; conditions: 48 h
# Procedure: as §2
# OVCAR-3 = experiment: cells; parameters: species or system JFCR39 human cancer cell lines; JFCR39 panel growth inhibition, sulforhodamine B total protein after 48 h; conditions: Homo sapiens, OVCAR-3, 48 h
# Procedure: as §2
# OVCAR-8 = experiment: cells; parameters: species or system JFCR39 human cancer cell lines; JFCR39 panel growth inhibition, sulforhodamine B total protein after 48 h; conditions: Homo sapiens, OVCAR-8, 48 h
# Procedure: as §2
# MKN1 = experiment: cells; parameters: species or system JFCR39 human cancer cell lines; JFCR39 panel growth inhibition, sulforhodamine B total protein after 48 h; conditions: Homo sapiens, MKN-1, 48 h
# Procedure: as §2
# [3] = 0.1 µM (DMSO 0.002%), control 1.064
# [4] = 1 µM (DMSO 0.02%), control 1.104
# [5] = 10 µM (DMSO 0.2%), control 1.049
# [6] = replicate 1, relative to DMSO 1%, read-out: % viability, viability 1
# [7] = replicate 2, relative to DMSO 1%, read-out: % viability, viability 2
# [8] = DL1 cells, 0.04 µM, replicate 1
# [9] = DL1 cells, 0.04 µM, replicate 2
# [10] = DL1 cells, cytotoxicity, average of two replicates, read-out: IC50 Average
# [11] = DL1 cells, cytotoxicity, replicate 1, read-out: IC50 (1)
# [12] = DL1 cells, cytotoxicity, replicate 2, read-out: IC50 (2)
structure (smiles),measurement,setting,value
C=C1CCC2C(C)(CC(=O)C=C(C)C)C(O)CCC2(C)C1Cc1c(O)c(C)c(C)oc1=O (centres unmarked) [Compound 7],viability at 0.1 µM,MCF-7 cells; 0.1 µM (DMSO 0.002%),81%
same,viability at 1 µM,MCF-7 cells; 1 µM (DMSO 0.02%),92.4%
same,viability at 10 µM,MCF-7 cells; 10 µM (DMSO 0.2%),104%
same,A490 ave,MCF-7 cells; [3],0.862
same,A490 ave,MCF-7 cells; [4],1.021
same,A490 ave,MCF-7 cells; [5],1.095
same,viability at 0.04 µM,[1]; [6],129%
same,viability at 0.04 µM,[1]; [7],132%
same,viability at 0.2 µM,[1]; [6],133%
same,viability at 0.2 µM,[1]; [7],135%
same,viability at 1 µM,[1]; [6],120%
same,viability at 1 µM,[1]; [7],138%
same,viability at 4 µM,[1]; [6],83.5%
same,viability at 4 µM,[1]; [7],117%
same,viability at 10 µM,[1]; [6],36.5%
same,viability at 10 µM,[1]; [7],39.8%
same,viability at 20 µM,[1]; [6],13.4%
same,viability at 20 µM,[1]; [7],14.2%
same,Luminescence Raw1,DL1 cells; [8],2666434
same,Luminescence Raw2,DL1 cells; [9],2708996
same,Luminescence Raw1,"DL1 cells; DL1 cells, 0.2 µM, replicate 1",2732080
same,Luminescence Raw2,"DL1 cells; DL1 cells, 0.2 µM, replicate 2",2789792
same,Luminescence Raw1,"DL1 cells; DL1 cells, 1 µM, replicate 1",2478515
same,Luminescence Raw2,"DL1 cells; DL1 cells, 1 µM, replicate 2",2838847
same,Luminescence Raw1,"DL1 cells; DL1 cells, 4 µM, replicate 1",1720040
same,Luminescence Raw2,"DL1 cells; DL1 cells, 4 µM, replicate 2",2405658
same,Luminescence Raw1,"DL1 cells; DL1 cells, 10 µM, replicate 1",751779
same,Luminescence Raw2,"DL1 cells; DL1 cells, 10 µM, replicate 2",819211
same,Luminescence Raw1,"DL1 cells; DL1 cells, 20 µM, replicate 1",275091
same,Luminescence Raw2,"DL1 cells; DL1 cells, 20 µM, replicate 2",293480
same,IC50,DL1 cells; [10],8.75 µM
same,IC50,"DL1 cells; DL1 cells, cytotoxicity, average±SEM, read-out: IC50",8.75 ± 0.64 µM
same,IC50,DL1 cells; [11],8.12 µM
same,IC50,DL1 cells; [12],9.39 µM
same,EC50,[2],0.163 µM
same,Cytotoxicity,MAGI cells,>10 µM
same,GI50,HBC-5,32.5 µM
same,GI50,LOX-IMVI,12.2 µM
same,GI50,MDA-MB-231,58.3 µM
same,GI50,MKN-B,37.7 µM
same,GI50,OVCAR-3,20.6 µM
same,GI50,OVCAR-8,35.7 µM
C=C1CC[C@@H]2[C@](C)(CC[C@H]3O[C@H](C=C(C)C)C[C@@]23C)[C@@H]1Cc1c(OC)oc(CO)c(C(=O)OC)c1=O [Compound 21],viability at 0.1 µM,MCF-7 cells; 0.1 µM (DMSO 0.002%),114%
same,viability at 1 µM,MCF-7 cells; 1 µM (DMSO 0.02%),118%
same,viability at 10 µM,MCF-7 cells; 10 µM (DMSO 0.2%),103%
same,A490 ave,MCF-7 cells; [3],1.213
same,A490 ave,MCF-7 cells; [4],1.298
same,A490 ave,MCF-7 cells; [5],1.083
same,viability at 0.04 µM,[1]; [6],5.78%
same,viability at 0.04 µM,[1]; [7],8.79%
same,viability at 0.2 µM,[1]; [6],4.01%
same,viability at 0.2 µM,[1]; [7],4.17%
same,viability at 1 µM,[1]; [6],3.52%
same,viability at 1 µM,[1]; [7],2.4%
same,viability at 4 µM,[1]; [6],3.47%
same,viability at 4 µM,[1]; [7],3.41%
same,viability at 10 µM,[1]; [6],3.5%
same,viability at 10 µM,[1]; [7],3.92%
same,viability at 20 µM,[1]; [6],2.31%
same,viability at 20 µM,[1]; [7],3.01%
same,Luminescence Raw1,DL1 cells; [8],237970
same,Luminescence Raw2,DL1 cells; [9],362006
same,Luminescence Raw1,"DL1 cells; DL1 cells, 0.2 µM, replicate 1",165136
same,Luminescence Raw2,"DL1 cells; DL1 cells, 0.2 µM, replicate 2",171986
same,Luminescence Raw1,"DL1 cells; DL1 cells, 1 µM, replicate 1",144944
same,Luminescence Raw2,"DL1 cells; DL1 cells, 1 µM, replicate 2",98793
same,Luminescence Raw1,"DL1 cells; DL1 cells, 4 µM, replicate 1",143141
same,Luminescence Raw2,"DL1 cells; DL1 cells, 4 µM, replicate 2",140618
same,Luminescence Raw1,"DL1 cells; DL1 cells, 10 µM, replicate 1",144223
same,Luminescence Raw2,"DL1 cells; DL1 cells, 10 µM, replicate 2",161530
same,Luminescence Raw1,"DL1 cells; DL1 cells, 20 µM, replicate 1",95187
same,Luminescence Raw2,"DL1 cells; DL1 cells, 20 µM, replicate 2",124032
same,IC50,DL1 cells; [10],< 0.04 µM
same,IC50,DL1 cells; [11],< 0.04 µM
same,IC50,DL1 cells; [12],< 0.04 µM
same,IC50,"DL1 cells; DL-1 cell line, cell growth, read-out: IC50",< 0.04 µM
same,GI50,HBC-5,14.7 µM
same,GI50,LOX-IMVI,15.1 µM
same,GI50,MDA-MB-231,17.8 µM
same,GI50,MKN-B,16.8 µM
same,GI50,MKN1,18.5 µM
same,GI50,OVCAR-3,12 µM
same,GI50,OVCAR-8,16.7 µM
